The record followed here is PubChem BioAssay (NCI).

Molecules are shown by their SMILES. Where “and” joins values, the source holds several entries; their conditions need not be identical. Equal entries are not always repeated.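 Test compounds were applied to cells in 96-well plates for 48 hours at 5 doses. At the GI50, growth is halved. Definition used: TGI = concentration required for complete inhibition of growth.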

Some test systems named below: NCI-H460 lung; M14 melanoma; UO-31 renal; IGROV1 ovarian; NCI-H226 lung; K-562 leukemia; MDA-MB-435; RPMI-8226 leukemia; CAKI-1 renal; SK-OV-3 ovarian.
Assay in all cases: DTP human tumour cell line panel, 48 h

As a reminder, the GI50 is the concentration at which growth is held to half of that of the control. In general, TGI refers to the concentration at which net growth stops. Read a high TGI as lower sensitivity of the cells. For `CCN(CC)CCOc1ccc(C(=O)/C=C\c2ccc(Cl)cc2Cl)cc1`, the GI50 was 11.1 µM in the test with NCI-H460 lung; 2.17 µM with M14 melanoma; 4.06 µM with UO-31 renal; 4.63 µM with IGROV1 ovarian; 11.3 µM in the test with NCI-H226 lung; 2.41 µM in the test on K-562 leukemia. Further, the GI50 is 2.56 µM in the test on MDA-MB-435, 1.94 µM in the test with RPMI-8226 leukemia, 10.5 µM in the test on CAKI-1 renal and 11.8 µM with SK-OV-3 ovarian. Further, the TGI in the test with NCI-H460 lung was found to be 26.1 µM; with M14 melanoma, 5 µM; with UO-31 renal it was 17.2 µM; with IGROV1 ovarian it was 22.4 µM; with NCI-H226 lung it was 26.6 µM; in the test with K-562 leukemia, 9.13 µM. Also, the TGI worked out at 7.36 µM with MDA-MB-435, 6.34 µM in the test on RPMI-8226 leukemia, 22.3 µM in the test on CAKI-1 renal and 24.3 µM in the test with SK-OV-3 ovarian.

For the compound `[Cl][Cd][Cl]`, the GI50 was 1.44 µM and 4.53 µM and 1.16 µM in the test on NCI-H460 lung; 43.4 µM and 62.3 µM with M14 melanoma; > 74 µM and 74.5 µM with UO-31 renal; 4.32 µM and 29.7 µM and 8.4 µM in the test with IGROV1 ovarian; > 44 µM and 11.9 µM with NCI-H226 lung; 2.01 µM and 20 µM and 14.8 µM in the test on K-562 leukemia. The GI50 in the test on MDA-MB-435 was 8.26 µM; in the test on CAKI-1 renal it was 17.7 µM and 10.9 µM; with SK-OV-3 ovarian, 44.3 µM and 12.4 µM. The TGI in the test on NCI-H460 lung was 17.6 µM and 24.9 µM; with M14 melanoma it was > 76.9 µM and 161 µM; in the test on UO-31 renal, 131 µM; with IGROV1 ovarian, > 60.6 µM and 16.1 µM; in the test on NCI-H226 lung, > 69.7 µM and 43.6 µM; in the test on K-562 leukemia it was 51.3 µM and 147 µM. Further, the TGI in the test on MDA-MB-435 was 30.9 µM; in the test on RPMI-8226 leukemia, 8.71 µM and 71.5 µM and 61.8 µM; in the test with CAKI-1 renal, 34.8 µM and 22.2 µM; with SK-OV-3 ovarian, > 60 µM and 26 µM.

Take `Cc1cccc2c(N)c3ccccc3nc12`: the GI50 is 0.523 µM in the test with NCI-H460 lung; 1.87 µM with M14 melanoma; 0.595 µM in the test on UO-31 renal; 2.18 µM in the test on IGROV1 ovarian; 1.44 µM in the test with NCI-H226 lung; 1.3 µM in the test with K-562 leukemia. For the same compound, the GI50 in the test with MDA-MB-435 was 1.67 µM; in the test on RPMI-8226 leukemia it was 2.47 µM; in the test on CAKI-1 renal, 0.966 µM; in the test with SK-OV-3 ovarian, 2.12 µM. Moreover, the TGI in the test with NCI-H460 lung turned out to be 10.5 µM; in the test with M14 melanoma, 5.19 µM; in the test with UO-31 renal it was 6.09 µM; with IGROV1 ovarian, 9.67 µM; in the test on NCI-H226 lung, 6.19 µM; in the test with K-562 leukemia, 13.5 µM. The TGI was 4.54 µM with MDA-MB-435, 6.73 µM in the test on RPMI-8226 leukemia, 11.6 µM in the test with CAKI-1 renal and 17.4 µM in the test on SK-OV-3 ovarian.

Turning to `CC(C)CCN[C@@H]1CCc2cc(O)c(N3CC(=O)NS3(=O)=O)c(F)c2C1`, the GI50 was greater than 100 µM in the test with NCI-H460 lung; greater than 100 µM with M14 melanoma; 16.8 µM in the test with UO-31 renal; greater than 100 µM in the test on IGROV1 ovarian; greater than 100 µM in the test on NCI-H226 lung; greater than 100 µM with K-562 leukemia. The GI50 with MDA-MB-435 was greater than 100 µM; in the test with RPMI-8226 leukemia, greater than 100 µM; in the test on CAKI-1 renal it was 3.41 µM; with SK-OV-3 ovarian it was greater than 100 µM. In addition, the TGI in the test with NCI-H460 lung, in the test on M14 melanoma, in the test with UO-31 renal, in the test on IGROV1 ovarian, in the test on NCI-H226 lung and in the test with K-562 leukemia was greater than 100 µM in each case. For the same compound, the TGI in the test with MDA-MB-435, in the test on RPMI-8226 leukemia, in the test with CAKI-1 renal and in the test with SK-OV-3 ovarian was greater than 100 µM in each case.

`C=CCCCc1ccc(C(O)CCCCCCCCCCCC)o1` (centres undefined): the GI50 is 22 µM with NCI-H460 lung; 18.9 µM with M14 melanoma; 16.3 µM with UO-31 renal; 19.5 µM in the test on IGROV1 ovarian; 17.8 µM with NCI-H226 lung; 24.5 µM in the test with K-562 leukemia. Besides, the GI50 in the test with MDA-MB-435 is 26.2 µM; in the test with RPMI-8226 leukemia, 19.2 µM; in the test on CAKI-1 renal it was 17.4 µM; in the test with SK-OV-3 ovarian, 16.4 µM. The TGI in the test with NCI-H460 lung is 60.7 µM; with M14 melanoma it was 38.9 µM; in the test on UO-31 renal, 30.3 µM; in the test on IGROV1 ovarian, 44.9 µM; in the test with NCI-H226 lung, 34.3 µM; in the test with K-562 leukemia, greater than 100 µM. Moreover, the TGI with MDA-MB-435 stood at 58.7 µM; in the test on RPMI-8226 leukemia, 44.7 µM; with CAKI-1 renal it was 33.2 µM; in the test with SK-OV-3 ovarian, 37.2 µM.

For `COc1cc2c(c(OC3OC(CO)C(O)C(O)C3O)c1)C(=O)CC(c1ccc(O)cc1)O2` (centres undefined), the concentration for total growth inhibition (TGI) in the test with NCI-H460 lung, with M14 melanoma, in the test with UO-31 renal, in the test on IGROV1 ovarian, with NCI-H226 lung and with K-562 leukemia was greater than 100 µM throughout. For the same compound, the TGI with MDA-MB-435, in the test with RPMI-8226 leukemia, with CAKI-1 renal and in the test on SK-OV-3 ovarian was greater than 100 µM in each case.

Turning to `CC(=O)Oc1ccc(C(c2ccc(OC(C)=O)cc2)c2ccccn2)cc1`, the GI50 with NCI-H460 lung was greater than 78.5 µM; in the test with M14 melanoma it was 56.6 µM; in the test with UO-31 renal, 21.4 µM; with IGROV1 ovarian, 19.9 µM; in the test with NCI-H226 lung, 40.2 µM; in the test on K-562 leukemia, 39.3 µM. For the same compound, the GI50 in the test with MDA-MB-435 is 53.2 µM; with RPMI-8226 leukemia, 30.3 µM; in the test on CAKI-1 renal, 46.8 µM; in the test on SK-OV-3 ovarian, 31.7 µM. Also, the TGI with NCI-H460 lung, with M14 melanoma, in the test with UO-31 renal, with IGROV1 ovarian, in the test with NCI-H226 lung and in the test with K-562 leukemia was greater than 100 µM throughout. In addition, the TGI with MDA-MB-435 is greater than 100 µM; in the test with RPMI-8226 leukemia it was greater than 100 µM; in the test on CAKI-1 renal it was greater than 100 µM; in the test with SK-OV-3 ovarian it was > 100 µM and 98.3 µM.
